# Laboratory results as given in ChEMBL document CHEMBL5661982 (Mol Cancer Ther, 2012).
# Activity calls are given as the source filed them. The rule behind the calls is not given here.
# Assays:
# [1] = target: Insulin-like growth factor 1 receptor (Mus musculus, UniProt Q60751); assay: Inhibition of IGF1R expressed in mouse NIH3T3 cells assessed as reduction in IGF-stimulated IGF1R phosphorylation incubated for 1 hr by sandwich ELISA analysis
# [2] = target: Tyrosine-protein kinase receptor UFO (Homo sapiens, UniProt P30530); assay: Inhibition of AXL expressed in HEK293 cells assessed as reduction in Gas6-stimulated AXL phosphorylation incubated for 1 hr by sandwich ELISA analysis
# U-87MG ATCC [3] = conditions: Homo sapiens, dose 5-50 mg/kg, route po, time 3.0 day
# DLD-1 = assay: Antiproliferative activity against human DLD-1 cells over expressing c-Met assessed as reduction in cell viability after 48 to 72 hrs by MTT assay
# [4] = target: Macrophage-stimulating protein receptor (Mus musculus, UniProt Q62190); assay: Inhibition of Ron expressed in mouse NIH3T3 cells assessed as reduction in MSP-stimulated RON phosphorylation incubated for 1 hr by sandwich ELISA analysis
# PC-3 = assay: Antiproliferative activity against human PC-3 cells over expressing c-Met assessed as reduction in cell viability after 48 to 72 hrs by MTT assay
# HT-29 [5] = assay: Antiproliferative activity against human HT-29 cells over expressing c-Met assessed as reduction in cell viability after 48 to 72 hrs by MTT assay
# HT-29 [6] = assay: Inhibition of cell invasion in HGF-stimulated human HT-29 cells over expressing c-Met incubated for 48 hrs by Matrigel based analysis; conditions: HT-29, 48 h
# [7] = Inhibition of c-Met T11010I mutant phosphorylation in human HOP-92 cells assessed as reduction in HGF-stimulated c-Met phosphorylation incubated for 1 hr by ELISA analysis; conditions: HOP-92, 1 h
# HUVEC [8] = assay: Antiproliferative activity against HGF-stimulated HUVEC cells assessed as reduction in cell viability after 48 to 72 hrs by MTT assay; conditions: Homo sapiens
# GTL 16 cell line [9] = assay: Antitumor activity against human GTL 16 cells xenografted in athymic nu/nu mouse assessed as tumor growth inhibition at 3 mg/kg, po administered for 16 days relative to control; conditions: GTL 16, po, 384 h, read-out: TGI
# GTL 16 cell line [10] = assay: Antitumor activity against human GTL 16 cells xenografted in athymic nu/nu mouse assessed as tumor growth inhibition at 0.5 mg/kg, sc minipump administered for 14 days relative to control; conditions: GTL 16, 336 h, read-out: TGI
# U-87 MG [11] = assay: Antiproliferative activity against human U-87 MG cells over expressing c-Met assessed as reduction in cell viability after 48 to 72 hrs by MTT assay
# HT-29 [12] = assay: Antitumor activity against human HT-29 cells xenografted in athymic nu/nu mouse assessed as tumor growth inhibition at 50 mg/kg/day, po for 21 days relative to control; conditions: HT-29, po, 504 h, read-out: TGI
# HT-29 [13] = assay: Antitumor activity against human HT-29 cells transfected with RON shRNA xenografted in athymic nu/nu mouse assessed as tumor growth inhibition at 50 mg/kg/day, po for 21 days relative to control; conditions: HT-29, po, 504 h, read-out: TGI
# U-87MG ATCC [14] = conditions: Homo sapiens, dose 5-50 mg/kg, route po, time 3.0 day; remark: listed apart in the source
# GTL 16 [15] = conditions: Homo sapiens, dose 0.3-10 mg/kg, route po, time 4.0 day
# A549 = assay: Antiproliferative activity against human A549 cells over expressing c-Met assessed as reduction in cell viability after 48 to 72 hrs by MTT assay
# HT-29 [16] = conditions: Homo sapiens, dose 50.0 mg/kg/day, route po, time 21.0 day
# GTL 16 cell line [17] = assay: Antitumor activity against human GTL 16 cells xenografted in athymic nu/nu mouse assessed as tumor growth inhibition at 10 mg/kg, po administered for 16 days relative to control; conditions: GTL 16, po, 384 h, read-out: TGI
# GTL 16 [18] = conditions: Homo sapiens, dose 0.3-10 mg/kg, route po, time 4.0 day; remark: listed apart in the source
# U-87MG ATCC [19] = conditions: Homo sapiens, dose 5-50 mg/kg, route po, time 3.0 day; remark: listed apart in the source
# GTL 16 [20] = conditions: Homo sapiens, dose 0.3-10 mg/kg, route po, time 4.0 day; remark: listed apart in the source
# U-87MG ATCC [21] = conditions: Homo sapiens, dose 5-50 mg/kg, route po, time 3.0 day; remark: listed apart in the source
# U-87 MG [22] = assay: Antitumor activity against human U-87 MG cells xenografted in athymic nu/nu mouse assessed as tumor growth inhibition at 30 mg/kg, po for 9 days relative to control; conditions: 216 h, read-out: TGI
# SW-620 = assay: Antitumor activity against human SW620 cells xenografted in athymic nu/nu mouse assessed as tumor growth inhibition at 40 mg/kg/day, po for 25 days relative to control; conditions: SW-620, po, 600 h, read-out: TGI
# COLO 205 = assay: Antitumor activity against human COLO 205 cells xenografted in athymic nu/nu mouse assessed as tumor growth inhibition at 40 mg/kg/day, po for 18 days relative to control; conditions: COLO 205, po, 432 h, read-out: TGI
# HUVEC [23] = assay: Inhibition of cell invasion in HGF-stimulated HUVEC cells incubated for 48 hrs by Matrigel based analysis; conditions: Homo sapiens
# GTL 16 cell line [24] = assay: Antiproliferative activity against human GTL 16 cells over expressing c-Met assessed as reduction in cell viability after 48 to 72 hrs by MTT assay
# [25] = Inhibition of human c-Met V1092I mutant expressed in mouse NIH3T3 cells assessed as reduction in HGF-stimulated c-Met phosphorylation incubated for 1 hr by ELISA analysis; conditions: NIH3T3, 1 h
# GTL 16 [26] = conditions: Homo sapiens, dose 1-30 mg/kg, route po
# MDA-MB-231 = assay: Antitumor activity against human MDA-MB-231 cells xenografted in athymic nu/nu mouse assessed as tumor growth inhibition at 40 mg/kg/day, po for 14 days relative to control; conditions: MDA-MB-231, po, 336 h, read-out: TGI
# U-87 MG [27] = assay: Antitumor activity against human U-87 MG cells xenografted in athymic nu/nu mouse assessed as tumor growth inhibition at 1 mg/kg, po for 9 days relative to control; conditions: 216 h, read-out: TGI
# U-87 MG [28] = assay: Antitumor activity against human U-87 MG cells xenografted in athymic nu/nu mouse assessed as tumor growth inhibition at 0.3 mg/kg, po for 9 days relative to control; conditions: 216 h, read-out: TGI
# Sequence of Insulin-like growth factor 1 receptor (Q60751 31-737 limits assumed): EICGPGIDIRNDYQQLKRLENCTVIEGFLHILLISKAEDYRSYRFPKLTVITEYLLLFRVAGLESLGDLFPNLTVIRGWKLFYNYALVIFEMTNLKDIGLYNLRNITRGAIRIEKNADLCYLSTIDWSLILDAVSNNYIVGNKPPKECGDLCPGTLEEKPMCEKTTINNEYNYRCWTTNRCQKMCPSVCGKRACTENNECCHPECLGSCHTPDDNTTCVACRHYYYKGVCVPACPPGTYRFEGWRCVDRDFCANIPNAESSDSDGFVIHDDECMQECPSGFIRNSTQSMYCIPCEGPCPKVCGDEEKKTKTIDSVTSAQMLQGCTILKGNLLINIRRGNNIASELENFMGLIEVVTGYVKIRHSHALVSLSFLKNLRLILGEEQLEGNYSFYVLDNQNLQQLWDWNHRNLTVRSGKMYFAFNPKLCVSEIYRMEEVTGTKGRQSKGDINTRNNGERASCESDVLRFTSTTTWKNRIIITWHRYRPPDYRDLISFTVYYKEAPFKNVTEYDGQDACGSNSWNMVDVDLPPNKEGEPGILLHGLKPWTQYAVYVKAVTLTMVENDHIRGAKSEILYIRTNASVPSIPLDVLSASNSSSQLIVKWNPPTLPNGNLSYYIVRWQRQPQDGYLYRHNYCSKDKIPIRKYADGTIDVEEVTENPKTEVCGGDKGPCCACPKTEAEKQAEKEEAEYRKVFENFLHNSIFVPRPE
# Sequence of Insulin-like growth factor 1 receptor (Q60751 742-1373 limits assumed): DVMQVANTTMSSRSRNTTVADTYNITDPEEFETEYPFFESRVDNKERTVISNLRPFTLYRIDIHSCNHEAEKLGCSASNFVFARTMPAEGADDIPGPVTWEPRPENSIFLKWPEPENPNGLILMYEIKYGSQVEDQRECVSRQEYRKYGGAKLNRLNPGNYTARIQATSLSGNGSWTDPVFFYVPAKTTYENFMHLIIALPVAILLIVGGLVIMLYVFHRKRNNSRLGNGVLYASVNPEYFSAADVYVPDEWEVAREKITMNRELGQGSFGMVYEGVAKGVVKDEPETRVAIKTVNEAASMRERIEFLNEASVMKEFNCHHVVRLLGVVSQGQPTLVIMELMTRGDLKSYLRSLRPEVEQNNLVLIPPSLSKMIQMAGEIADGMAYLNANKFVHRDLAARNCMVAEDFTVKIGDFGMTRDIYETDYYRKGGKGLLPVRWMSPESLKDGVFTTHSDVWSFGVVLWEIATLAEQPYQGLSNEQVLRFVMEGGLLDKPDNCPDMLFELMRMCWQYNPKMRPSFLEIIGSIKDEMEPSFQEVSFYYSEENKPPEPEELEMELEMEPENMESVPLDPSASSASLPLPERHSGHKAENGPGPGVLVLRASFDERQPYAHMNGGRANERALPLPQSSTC
# Sequence of Macrophage-stimulating protein receptor (Q62190 25-305 limits assumed): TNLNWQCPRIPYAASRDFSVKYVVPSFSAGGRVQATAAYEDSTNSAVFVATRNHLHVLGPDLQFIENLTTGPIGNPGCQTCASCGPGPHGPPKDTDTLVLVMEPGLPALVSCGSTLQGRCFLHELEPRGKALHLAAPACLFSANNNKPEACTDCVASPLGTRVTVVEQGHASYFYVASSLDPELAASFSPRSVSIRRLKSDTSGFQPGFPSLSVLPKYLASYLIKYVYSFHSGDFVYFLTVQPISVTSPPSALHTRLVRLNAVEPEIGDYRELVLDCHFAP
# Sequence of Macrophage-stimulating protein receptor (Q62190 311-1378 limits assumed): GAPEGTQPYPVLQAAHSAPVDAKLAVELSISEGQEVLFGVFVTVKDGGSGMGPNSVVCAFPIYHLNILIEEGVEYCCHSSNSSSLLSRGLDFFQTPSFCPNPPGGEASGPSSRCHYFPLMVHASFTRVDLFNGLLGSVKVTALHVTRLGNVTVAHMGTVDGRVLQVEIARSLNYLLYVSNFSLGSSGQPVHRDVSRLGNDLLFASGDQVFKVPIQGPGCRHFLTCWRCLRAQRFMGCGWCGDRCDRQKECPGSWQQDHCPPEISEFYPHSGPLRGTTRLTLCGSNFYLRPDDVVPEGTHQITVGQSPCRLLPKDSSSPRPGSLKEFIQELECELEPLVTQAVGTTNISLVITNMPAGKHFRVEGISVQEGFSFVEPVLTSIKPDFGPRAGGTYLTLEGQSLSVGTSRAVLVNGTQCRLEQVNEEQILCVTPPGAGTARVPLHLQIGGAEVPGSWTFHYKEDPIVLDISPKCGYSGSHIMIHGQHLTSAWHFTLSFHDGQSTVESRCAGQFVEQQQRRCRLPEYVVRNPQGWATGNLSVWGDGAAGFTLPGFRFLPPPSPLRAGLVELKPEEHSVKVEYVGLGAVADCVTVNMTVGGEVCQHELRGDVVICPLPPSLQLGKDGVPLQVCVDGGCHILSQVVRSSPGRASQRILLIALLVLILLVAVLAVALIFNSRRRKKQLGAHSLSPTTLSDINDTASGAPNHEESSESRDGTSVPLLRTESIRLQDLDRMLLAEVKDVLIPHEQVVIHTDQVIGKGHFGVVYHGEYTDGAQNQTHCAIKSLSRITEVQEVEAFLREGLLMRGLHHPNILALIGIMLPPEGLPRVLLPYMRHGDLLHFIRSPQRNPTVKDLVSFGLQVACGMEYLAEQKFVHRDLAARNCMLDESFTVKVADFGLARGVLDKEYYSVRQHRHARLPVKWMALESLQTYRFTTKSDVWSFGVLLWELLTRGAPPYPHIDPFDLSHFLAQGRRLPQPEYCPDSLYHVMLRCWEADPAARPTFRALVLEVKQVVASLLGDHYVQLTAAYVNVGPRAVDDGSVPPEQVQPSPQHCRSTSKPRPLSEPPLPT
# Sequence of Tyrosine-protein kinase receptor UFO (P30530 whole entry): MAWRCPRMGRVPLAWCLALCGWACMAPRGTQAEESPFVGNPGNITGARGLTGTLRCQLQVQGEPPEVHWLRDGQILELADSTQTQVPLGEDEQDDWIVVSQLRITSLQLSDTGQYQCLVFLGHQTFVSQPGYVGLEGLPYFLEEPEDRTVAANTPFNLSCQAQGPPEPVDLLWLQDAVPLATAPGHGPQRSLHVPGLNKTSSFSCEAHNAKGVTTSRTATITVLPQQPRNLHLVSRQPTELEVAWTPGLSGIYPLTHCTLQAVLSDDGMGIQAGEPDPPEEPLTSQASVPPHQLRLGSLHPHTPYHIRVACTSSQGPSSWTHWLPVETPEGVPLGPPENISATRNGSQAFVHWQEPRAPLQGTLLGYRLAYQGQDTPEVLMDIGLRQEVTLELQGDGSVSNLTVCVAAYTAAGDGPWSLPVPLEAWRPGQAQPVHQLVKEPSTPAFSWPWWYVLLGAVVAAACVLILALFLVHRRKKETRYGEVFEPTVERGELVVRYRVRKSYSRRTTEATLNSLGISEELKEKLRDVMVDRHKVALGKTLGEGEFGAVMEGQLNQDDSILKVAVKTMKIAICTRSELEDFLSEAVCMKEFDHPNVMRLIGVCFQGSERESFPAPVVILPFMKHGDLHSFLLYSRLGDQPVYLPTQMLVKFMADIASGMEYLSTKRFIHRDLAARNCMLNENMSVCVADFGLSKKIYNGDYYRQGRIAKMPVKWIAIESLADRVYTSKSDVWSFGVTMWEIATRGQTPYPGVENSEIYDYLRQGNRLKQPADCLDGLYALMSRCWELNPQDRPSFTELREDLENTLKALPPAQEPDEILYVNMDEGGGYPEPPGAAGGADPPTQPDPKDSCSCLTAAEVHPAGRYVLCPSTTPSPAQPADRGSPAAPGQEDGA
structure (smiles),measurement,setting,value
OCCn1cc(-c2cnc3nnn(Cc4ccc5ncccc5c4)c3n2)cn1 [PF-04217903],IC50,[1],> 10000 nM
same,IC50,[2],> 10000 nM
same,inhibition,U-87MG ATCC [3],inactive
same,IC50,DLD-1,> 10000 nM
same,IC50,[4],> 10000 nM
same,IC50,PC-3,> 10000 nM
same,IC50,HT-29 [5],> 10000 nM
same,IC50,HT-29 [6],7 nM
same,IC50,[7],6.7 nM
same,IC50,HUVEC [8],12.3 nM
same,inhibition in vivo at 3 mg/kg,GTL 16 cell line [9],74%
same,inhibition in vivo at 0.5 mg/kg,GTL 16 cell line [10],46%
same,IC50,U-87 MG [11],> 10000 nM
same,inhibition in vivo at 50 mg/kg/day,HT-29 [12],40%
same,inhibition in vivo at 50 mg/kg/day,HT-29 [13],77%
same,inhibition,U-87MG ATCC [14],Active
same,inhibition,GTL 16 [15],Dose-Dependent Effect
same,IC50,A549,> 10000 nM
same,inhibition,HT-29 [16],Active
same,inhibition in vivo at 10 mg/kg,GTL 16 cell line [17],90%
same,inhibition,GTL 16 [18],Dose-Dependent Effect
same,inhibition,U-87MG ATCC [19],Active
same,inhibition,GTL 16 [20],Dose-Dependent Effect
same,inhibition,U-87MG ATCC [21],Active
same,inhibition in vivo at 30 mg/kg,U-87 MG [22],84%
same,inhibition in vivo at 40 mg/kg/day,SW-620,45%
same,inhibition in vivo at 40 mg/kg/day,COLO 205,44%
same,IC50,HUVEC [23],27 nM
same,IC50,GTL 16 cell line [24],12 nM
same,IC50,[25],16 nM
same,inhibition,GTL 16 [26],Active
same,inhibition in vivo at 40 mg/kg/day,MDA-MB-231,43%
same,inhibition in vivo at 1 mg/kg,U-87 MG [27],30%
same,inhibition in vivo at 0.3 mg/kg,U-87 MG [28],20%
